Laboratory results taken from patent US7462324B2, “Measurement device and method for measuring electric signal from biological sample” (Panasonic Corporation, priority 2002, dated 2008).

System: rat artery smooth muscles (SM)
Experiment: Intracellular potential of a rat artery smooth muscle cell on carbachol administration, voltage clamp with measurement device 10
Type: cell-based
Experimental: As the biological sample 21, rat artery smooth muscles (SM) were used. As a solution to be injected into the measurement device 10, DMEM culture medium to which 10% FBS (fetal bovine serum) was added was used. An SM cell was inserted into the microelectrode 1 by performing the same operation as that of EXAMPLE 2, and then an intracellular potential when 100 μM carbachol, which was an analog of acetylcholine, was introduced as a solution was measured by a voltage clamp method.
The results were similar to those obtained by the known intracellular recording method.
FIG. 13 is a histogram of standard deviation per 10 ms before and after a carbachol administration. The mean value and half width of the graph, obtained by approximating the histogram before and after a carbachol administration with a normal distribution are 0.185 and 0.04, respectively, before the administration and 0.545 and 0.21, respectively, after the administration. […] The reason for the increase was that by the administration of carbachol, ion channels of the […] was activated, and changes in conductance due to switching of the activated ion channels is expressed by voltage change. From FIG. 13, it was confirmed that with the measurement device 10, ion channel properties for a nerve stimulator can be determined as in the same manner in the known intracellular recording method.

## C[N+](C)(C)CCOC(N)=O [carbachol]
100 μM carbachol introduced as a solution, SM cell on microelectrode, DMEM + 10% FBS, FIG. 12
  action potential in response to carbachol: detected
After carbachol administration (100 μM), before administration 0.185, FIG. 13
  mean value of histogram of standard deviation per 10 ms of the action potential (normal distribution approximation): 0.545
